Measured values reported in patent US20120270237A9, “METHODS FOR THE IDENTIFICATION OF KINASE INTERACTING MOLECULES AND FOR THE PURIFICATION OF KINASE PROTEINS” (Cellzone AG, priority 2009, published 2012).

How the values were obtained:
Assay in all cases: Kinobeads competition binding, HL60 cell lysate
Design in all cases: endogenous in cells
Details in all cases: 10 μM free compound
ULK3 = target: T1, ULK3 (Homo sapiens, UniProt Q6PHR2)
T1 sequence (Q6PHR2 1-472): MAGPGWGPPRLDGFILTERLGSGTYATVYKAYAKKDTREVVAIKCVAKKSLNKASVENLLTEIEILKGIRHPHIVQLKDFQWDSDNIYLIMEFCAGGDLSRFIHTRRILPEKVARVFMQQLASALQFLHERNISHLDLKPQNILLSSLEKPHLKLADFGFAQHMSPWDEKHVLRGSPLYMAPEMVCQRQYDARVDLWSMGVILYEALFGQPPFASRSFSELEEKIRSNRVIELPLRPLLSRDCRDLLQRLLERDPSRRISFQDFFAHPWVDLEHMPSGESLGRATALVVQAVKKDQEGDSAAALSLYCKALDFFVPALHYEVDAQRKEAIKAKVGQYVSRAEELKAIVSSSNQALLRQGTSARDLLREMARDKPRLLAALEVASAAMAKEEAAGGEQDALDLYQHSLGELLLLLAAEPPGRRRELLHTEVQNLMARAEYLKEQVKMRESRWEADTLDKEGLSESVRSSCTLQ
How it was run: (§1)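 Free compound 10 μM → HL60 lysate; affinity matrix with same compound immobilized, 2 h 4 °C; SDS elution, SDS-PAGE, in-gel trypsin; iTRAQ 114/117 labels vs 0.5% DMSO control; nano-LC-MS/MS, reporter-ion quantitation.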

BTK = BTK (Homo sapiens, UniProt Q06187)
How it was run: as §1

PLK1 = PLK1 (Homo sapiens, UniProt P53350)
How it was run: as §1

MLK3 = MLK3 (Homo sapiens, UniProt Q16584)
How it was run: as §1

CDK9 = CDK9 (Homo sapiens, UniProt P50750)
How it was run: as §1

STK33 = STK33 (Homo sapiens, UniProt Q9BYT3)
How it was run: as §1

PKN2 = PKN2 (Homo sapiens, UniProt Q16513)
How it was run: as §1

STK33, sequence (Q9BYT3 whole entry): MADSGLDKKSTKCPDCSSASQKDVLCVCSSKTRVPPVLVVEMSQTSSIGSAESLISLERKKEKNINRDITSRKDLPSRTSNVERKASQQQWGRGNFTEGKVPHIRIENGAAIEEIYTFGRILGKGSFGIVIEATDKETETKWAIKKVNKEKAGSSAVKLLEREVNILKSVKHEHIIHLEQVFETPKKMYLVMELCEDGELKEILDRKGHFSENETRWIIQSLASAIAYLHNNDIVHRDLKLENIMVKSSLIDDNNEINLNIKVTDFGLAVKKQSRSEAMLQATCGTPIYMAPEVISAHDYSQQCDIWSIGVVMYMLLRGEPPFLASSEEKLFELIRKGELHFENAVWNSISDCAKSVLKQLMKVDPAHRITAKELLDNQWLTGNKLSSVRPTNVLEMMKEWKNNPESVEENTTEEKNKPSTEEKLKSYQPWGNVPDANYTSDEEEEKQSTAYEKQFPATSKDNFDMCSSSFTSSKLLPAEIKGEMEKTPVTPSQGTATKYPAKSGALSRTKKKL
CDK9, sequence (P50750 whole entry): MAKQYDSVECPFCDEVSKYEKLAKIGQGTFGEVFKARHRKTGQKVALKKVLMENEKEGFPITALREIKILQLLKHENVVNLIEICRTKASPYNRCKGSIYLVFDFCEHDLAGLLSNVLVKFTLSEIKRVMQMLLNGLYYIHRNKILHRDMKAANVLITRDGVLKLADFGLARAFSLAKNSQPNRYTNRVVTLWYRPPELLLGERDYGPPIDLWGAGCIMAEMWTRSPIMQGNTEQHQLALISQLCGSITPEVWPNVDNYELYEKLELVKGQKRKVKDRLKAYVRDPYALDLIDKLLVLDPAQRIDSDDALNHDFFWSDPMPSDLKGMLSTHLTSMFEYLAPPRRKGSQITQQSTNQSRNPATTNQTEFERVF
MLK3, sequence (Q16584 whole entry): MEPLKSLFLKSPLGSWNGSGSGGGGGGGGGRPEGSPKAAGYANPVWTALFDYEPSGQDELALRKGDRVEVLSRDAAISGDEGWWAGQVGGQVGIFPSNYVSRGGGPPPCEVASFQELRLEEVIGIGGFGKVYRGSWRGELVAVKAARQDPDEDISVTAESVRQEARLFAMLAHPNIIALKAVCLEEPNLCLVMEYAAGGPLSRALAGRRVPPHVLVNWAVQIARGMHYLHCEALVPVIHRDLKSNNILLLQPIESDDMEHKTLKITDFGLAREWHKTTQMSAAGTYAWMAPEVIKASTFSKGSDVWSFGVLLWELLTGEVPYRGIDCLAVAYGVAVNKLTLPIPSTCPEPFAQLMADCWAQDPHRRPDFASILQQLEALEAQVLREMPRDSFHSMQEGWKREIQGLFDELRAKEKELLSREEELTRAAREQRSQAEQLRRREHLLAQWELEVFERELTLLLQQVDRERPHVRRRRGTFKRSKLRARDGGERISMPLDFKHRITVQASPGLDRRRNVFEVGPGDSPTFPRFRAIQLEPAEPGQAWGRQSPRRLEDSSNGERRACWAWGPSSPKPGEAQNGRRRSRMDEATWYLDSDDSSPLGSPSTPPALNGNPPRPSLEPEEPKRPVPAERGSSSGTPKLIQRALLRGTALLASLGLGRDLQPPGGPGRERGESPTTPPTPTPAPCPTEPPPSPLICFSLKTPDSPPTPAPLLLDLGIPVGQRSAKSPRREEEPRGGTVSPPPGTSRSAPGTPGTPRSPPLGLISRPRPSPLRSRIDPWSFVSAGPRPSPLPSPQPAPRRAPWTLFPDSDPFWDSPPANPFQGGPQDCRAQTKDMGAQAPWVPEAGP
PKN2, sequence (Q16513 whole entry): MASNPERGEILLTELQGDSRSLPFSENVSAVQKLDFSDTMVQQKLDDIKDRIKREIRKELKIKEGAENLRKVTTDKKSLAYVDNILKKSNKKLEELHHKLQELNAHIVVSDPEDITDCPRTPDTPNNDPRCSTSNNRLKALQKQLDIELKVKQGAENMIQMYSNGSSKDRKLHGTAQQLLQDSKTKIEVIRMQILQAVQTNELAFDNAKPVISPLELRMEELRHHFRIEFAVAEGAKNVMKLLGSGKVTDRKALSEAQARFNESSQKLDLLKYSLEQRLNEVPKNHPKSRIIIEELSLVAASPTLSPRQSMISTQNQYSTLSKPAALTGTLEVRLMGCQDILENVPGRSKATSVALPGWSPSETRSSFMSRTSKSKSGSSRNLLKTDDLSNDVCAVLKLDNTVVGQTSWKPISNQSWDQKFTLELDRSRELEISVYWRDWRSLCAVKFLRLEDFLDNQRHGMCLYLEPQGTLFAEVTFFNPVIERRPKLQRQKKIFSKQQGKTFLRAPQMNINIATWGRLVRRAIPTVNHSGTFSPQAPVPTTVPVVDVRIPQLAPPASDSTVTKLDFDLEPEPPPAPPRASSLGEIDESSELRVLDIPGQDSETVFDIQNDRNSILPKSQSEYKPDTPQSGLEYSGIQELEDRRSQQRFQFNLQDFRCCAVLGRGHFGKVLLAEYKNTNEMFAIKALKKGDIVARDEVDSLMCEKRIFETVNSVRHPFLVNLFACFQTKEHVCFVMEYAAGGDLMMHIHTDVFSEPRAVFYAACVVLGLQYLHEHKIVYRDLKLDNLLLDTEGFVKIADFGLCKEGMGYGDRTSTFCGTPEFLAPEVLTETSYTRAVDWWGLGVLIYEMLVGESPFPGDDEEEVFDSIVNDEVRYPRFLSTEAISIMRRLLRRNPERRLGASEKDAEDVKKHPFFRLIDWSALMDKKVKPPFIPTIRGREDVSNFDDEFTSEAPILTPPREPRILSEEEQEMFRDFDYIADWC
PLK1, sequence (P53350 whole entry): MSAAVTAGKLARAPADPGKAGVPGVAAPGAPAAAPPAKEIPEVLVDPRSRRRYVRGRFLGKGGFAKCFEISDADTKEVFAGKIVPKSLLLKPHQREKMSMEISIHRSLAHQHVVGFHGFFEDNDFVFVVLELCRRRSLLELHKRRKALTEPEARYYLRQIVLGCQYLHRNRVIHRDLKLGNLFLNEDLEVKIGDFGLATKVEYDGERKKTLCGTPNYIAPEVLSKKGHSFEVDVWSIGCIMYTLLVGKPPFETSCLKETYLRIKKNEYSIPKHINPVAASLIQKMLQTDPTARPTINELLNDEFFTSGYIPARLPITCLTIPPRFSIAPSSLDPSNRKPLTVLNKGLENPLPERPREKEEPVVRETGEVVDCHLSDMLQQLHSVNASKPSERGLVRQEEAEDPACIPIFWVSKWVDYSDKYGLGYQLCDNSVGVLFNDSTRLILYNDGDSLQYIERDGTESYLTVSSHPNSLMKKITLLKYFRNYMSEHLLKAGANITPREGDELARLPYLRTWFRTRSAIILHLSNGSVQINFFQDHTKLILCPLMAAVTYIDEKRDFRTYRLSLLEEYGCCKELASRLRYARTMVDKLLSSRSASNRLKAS
BTK, sequence (Q06187 whole entry): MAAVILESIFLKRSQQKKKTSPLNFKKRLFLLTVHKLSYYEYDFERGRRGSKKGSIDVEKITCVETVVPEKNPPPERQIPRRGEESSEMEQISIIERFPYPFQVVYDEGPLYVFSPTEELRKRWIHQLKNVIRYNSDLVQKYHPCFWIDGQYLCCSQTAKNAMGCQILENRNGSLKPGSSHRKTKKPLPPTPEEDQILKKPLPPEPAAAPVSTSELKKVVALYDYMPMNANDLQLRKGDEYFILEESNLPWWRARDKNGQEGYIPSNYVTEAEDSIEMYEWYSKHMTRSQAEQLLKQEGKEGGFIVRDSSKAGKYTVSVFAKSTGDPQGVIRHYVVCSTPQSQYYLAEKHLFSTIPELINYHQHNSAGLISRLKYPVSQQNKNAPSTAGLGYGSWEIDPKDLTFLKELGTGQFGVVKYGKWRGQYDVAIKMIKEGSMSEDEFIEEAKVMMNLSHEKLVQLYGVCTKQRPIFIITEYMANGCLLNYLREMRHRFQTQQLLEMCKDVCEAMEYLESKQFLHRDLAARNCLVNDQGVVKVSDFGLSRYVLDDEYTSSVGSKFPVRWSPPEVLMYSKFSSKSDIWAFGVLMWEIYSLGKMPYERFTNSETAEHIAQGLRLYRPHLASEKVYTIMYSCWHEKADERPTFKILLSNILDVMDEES

Competition % (ULK3): 97.7% | Competition % (BTK): 97.1% | inhibition at 10 µM (PLK1): 97.8% | Competition % (MLK3): 96.5% | inhibition at 10 µM (CDK9): 98.2% | inhibition at 10 µM (STK33): 96.9% | inhibition at 10 µM (PKN2): 93.9%
Compound: CS(=O)(=O)Nc1ccccc1Nc1nc(Nc2cccc(OCCN)c2)ncc1Cl [CZC31326, N-(2-(2-(3-(2-aminoethoxy)phenylamino)-5-chloropyrimidin-4-ylamino)phenyl)methanesulfonamide]
